Experimental data taken from US20250213705A1, “PSMA TARGETING LIGANDS AND METHODS OF USE” (Bright Peak Therapeutics AG, priority 2023, published 2025).

Legend:
[1] = target: Recombinant Human PSMA/FOLH1 Protein (Homo sapiens (Human), UniProt Q04609); assay: Inhibition assay (Amplex Red glutamic acid/glutamate oxidase, NAAG substrate); assay type: biochemical; conditions: Target PSMA, average of N replicates; for IC50: PSMA 5 nM, NAAG 40 μM; for Ki: calculated based on Cheng-Prusoff equation
Experimental: Amplex™ Red Glutamic Acid/Glutamate Oxidase Assay Kit Catalog number: A12221 (Thermofisher); Recombinant Human PSMA/FOLH1 Protein, CF (rnd systems); N-Acetyl-Asp-Glu (NAAG) (Sigma Aldrich; 96 well half area plate; Enspire plate reader.
Prepare a working solution of 100 μM Amplex® Red reagent containing 0.25 U/mL HRP, 0.08 U/mL L-glutamate oxidase, 0.5 U/mL 1-glutamate-pyruvate transaminase, 200 μM L-alanine and keep protected from light. […] Final concentration is 5 nM. Transfer 10 μl/well of the inhibitor solution previously prepared in a separate 96 wells/plate.
Pipette 20 μl/well of the working solution prepared above. Incubate the reactions for 30 min at 37° C., protected from light. Because the assay is continuous (not terminated), fluorescence may be measured at multiple time points to follow the kinetics of the reactions. Measure the fluorescence in a fluorescence microplate reader using excitation in the range of 530-560 nm and emission detection at ˜590 nm. Ec50s were determined with GraphPad Prism. Ki is calculated based on Cheng-Prusoff equation.

human FOLH1 = human FOLH1 (Homo sapiens (Human), UniProt Q04609); assay: SPR analysis of binding kinetics to biotinylated FOLH1 (Biacore 8K); conditions: ligand PSMA; for Kon: association rate; for koff: dissociation rate; for Kd: kinetic 1:1 binding model
Experimental: The interaction of PSMA-binding variants with human FOLH1 was measured with Surface Plasmon Resonance (SPR) technology. Biotinylated FOLH1 was captured at a concentration of 30 μg/mL onto a Streptavidin chip.
Binding kinetics of the analytes were measured with a Biacore 8K instrument in two-fold serial dilutions starting at 500 nM down to 1.95 nM in single cycle kinetic measurements. After each cycle, needles were washed with 50% DMSO. To measure the association to the FOLH1 protein, the samples were injected with a flow rate of 30 μL/min for 90 s, followed by 1200 s buffer only to detect the dissociation. The used running buffer was 1×PBS with 0.05% Tween20 and 2% DMSO. The relative response units (RU, Y-axis) are plotted against time (s, X-axis) and analyzed in a kinetic 1:1 binding model.
In a different setup, biotinylated FOLH1 was captured at a concentration of 0.8 μg/mL and the running buffer was 1×PBS with 0.05% Tween20.

Sequence of Recombinant Human PSMA/FOLH1 Protein (Q04609 whole entry): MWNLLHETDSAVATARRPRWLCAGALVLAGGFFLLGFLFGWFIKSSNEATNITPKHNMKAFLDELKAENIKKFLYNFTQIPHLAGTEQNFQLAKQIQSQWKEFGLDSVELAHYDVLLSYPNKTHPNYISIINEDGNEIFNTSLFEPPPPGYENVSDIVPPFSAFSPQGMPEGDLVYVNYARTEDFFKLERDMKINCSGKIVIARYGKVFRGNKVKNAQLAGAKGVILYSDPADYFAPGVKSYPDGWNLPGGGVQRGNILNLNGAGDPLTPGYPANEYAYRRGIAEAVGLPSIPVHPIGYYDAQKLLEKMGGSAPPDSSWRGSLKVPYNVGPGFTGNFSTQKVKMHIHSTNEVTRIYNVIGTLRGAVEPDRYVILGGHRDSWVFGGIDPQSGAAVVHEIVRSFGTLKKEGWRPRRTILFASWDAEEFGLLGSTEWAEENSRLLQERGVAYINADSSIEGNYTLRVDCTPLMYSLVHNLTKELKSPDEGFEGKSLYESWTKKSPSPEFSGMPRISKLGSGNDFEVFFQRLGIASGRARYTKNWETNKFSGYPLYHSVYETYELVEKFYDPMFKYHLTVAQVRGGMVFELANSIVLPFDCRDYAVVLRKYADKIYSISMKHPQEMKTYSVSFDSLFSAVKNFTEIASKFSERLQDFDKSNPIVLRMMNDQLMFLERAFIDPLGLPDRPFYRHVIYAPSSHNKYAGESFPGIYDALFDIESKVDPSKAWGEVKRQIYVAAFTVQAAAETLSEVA
Sequence of human FOLH1 (Q04609 whole entry): as above

SMILES | IC50 [1] [nM] | Ki [1] [nM] | Kon (human FOLH1) | koff (human FOLH1) [s⁻¹] | Kd (human FOLH1) [nM]
CC(=O)NCCOCCOCCOCCC(=O)N[C@@H]1C[C@@H](C(=O)NCC(=O)N[C@@H](Cc2ccc3ccccc3c2)C(=O)NCCCC[C@H](NC(=O)N[C@@H](CCC(=O)O)C(=O)O)C(=O)O)N(C(=O)COc2cc(C#N)cc(C#N)c2)C1 [Compound 90] | 87.6 | 0.626 | 183000 1.ms | 0.000232 | 1.27
CC(=O)NCCOCCOCCOCCC(=O)N(CCCCOc1cc(C#N)cc(C#N)c1)CC(=O)N[C@@H](Cc1ccc2ccccc2c1)C(=O)NCCCC[C@H](NC(=O)N[C@@H](CCC(=O)O)C(=O)O)C(=O)O [Compound 87] | 1480 | 10.6 | 272000 1.ms | 0.000136 | 0.5
CC(=O)NCCOCCOCCOCCC(=O)NC[C@H]1CC[C@H](C(=O)N[C@@H](Cc2c[nH]c3ccc(F)cc23)C(=O)NCCCC[C@H](NC(=O)N[C@@H](CCC(=O)O)C(=O)O)C(=O)O)CC1 [Compound 12] | 41.5 | 0.297 | 250000 1.ms | 0.000142 | 0.568
CC(=O)NCCOCCOCCOCCC(=O)NC[C@H]1CC[C@H](C(=O)N[C@@H](Cc2ccc3ccccc3c2)C(=O)NCCCC[C@H](NC(=O)N[C@@H](CCCC(=O)O)C(=O)O)C(=O)O)CC1 [Compound 24] | 3350 | 24 | 305000 1.ms | 0.0107 | 35.2
CC(=O)NCCOCCOCCOCCC(=O)N[C@@H](CCCOc1ccc(F)cc1F)C(=O)NC[C@H]1CC[C@H](C(=O)N[C@@H](Cc2ccc3ccccc3c2)C(=O)NCCCC[C@H](NC(=O)N[C@@H](CCC(=O)O)C(=O)O)C(=O)O)CC1 [Compound 40] | 155 | 1.11 | 153000 1.ms | 0.000249 | 1.62
CC(=O)NCCOCCOCCOCCC(=O)NC[C@H]1CC[C@H](C(=O)N[C@@H](Cc2ccc3ccccc3c2)C(=O)NCCCC[C@H](NC(=O)N[C@@H](Cc2ccco2)C(=O)O)C(=O)O)CC1 [Compound 49] | 16500 | 118 | – | – | 3080
CC(=O)NCCOCCOCCOCCC(=O)N1C[C@H](NC(=O)CCCOc2cc(C#N)cc(C#N)c2)C[C@H]1C(=O)NCC(=O)N[C@@H](Cc1ccc2ccccc2c1)C(=O)NCCCC[C@H](NC(=O)N[C@@H](CCC(=O)O)C(=O)O)C(=O)O [Compound 91] | – | – | 71500 1.ms | 0.000258 | –
CC(=O)NCCOCCOCCOCCC(=O)N[C@@H]1C[C@@H](C(=O)N[C@@H](Cc2ccc3ccccc3c2)C(=O)NCCCC[C@H](NC(=O)N[C@@H](CCC(=O)O)C(=O)O)C(=O)O)N(C(=O)COc2cc(C#N)cc(C#N)c2)C1 [Compound 81] | – | – | 90000 1.ms | 0.000371 | –
CC(=O)NCCOCCOCCOCCC(=O)NC[C@H]1CC[C@H](C(=O)N[C@@H](Cc2ccc3ccccc3c2)C(=O)NCCCC[C@H](NC(=O)N[C@@H](CCc2n[nH]c(=O)o2)C(=O)O)C(=O)O)CC1 [Compound 48] | 10300 | 73.5 | – | – | 1650
CC(=O)NCCOCCOCCOCCC(=O)NC[C@H]1CC[C@H](C(=O)N[C@@H](Cc2ccc3ccccc3c2)C(=O)NCCCC[C@H](NC(=O)N[C@@H](CC(=O)O)C(=O)O)C(=O)O)CC1 [Compound 23] | – | – | 291000 1.ms | 0.0349 | –
CC(=O)NCCOCCOCCOCCC(=O)N1C[C@H](NC(=O)COc2cc(C#N)cc(C#N)c2)C[C@H]1C(=O)NCC(=O)N[C@@H](Cc1ccc2ccccc2c1)C(=O)NCCCC[C@H](NC(=O)N[C@@H](CCC(=O)O)C(=O)O)C(=O)O [Compound 89] | 93.5 | 0.669 | 121000 1.ms | 0.000311 | 2.58
CC(=O)NCCOCCOCCOCCC(=O)NC[C@H]1CC[C@H](C(=O)N[C@@H](Cc2ccccc2)C(=O)NCCCC[C@H](NC(=O)N[C@@H](CCC(=O)O)C(=O)O)C(=O)O)CC1 [Compound 17] | 92.6 | 0.662 | 125000 1.ms | 0.000207 | 1.65
CC(=O)NCCOCCOCCOCCC(=O)NC[C@H]1CC[C@H](C(=O)N[C@@H](Cc2c[nH]c3ccccc23)C(=O)NCCCC[C@H](NC(=O)N[C@@H](CCC(=O)O)C(=O)O)C(=O)O)CC1 (stereo in doubt) [Compound 2] | 25.1 | 0.18 | 158000 1.ms | 3.3e-05 | 0.208
CC(=O)NCCOCCOCCOCCC(=O)N[C@@H](Cc1ccc(C(=O)O)cc1)C(=O)NCCCC(=O)N[C@@H](Cc1ccc2ccccc2c1)C(=O)NCCCC[C@H](NC(=O)N[C@@H](CCC(=O)O)C(=O)O)C(=O)O [Compound 97] | 10.8 | 0.077 | 90100 1.ms | 0.000328 | 3.64
CC(=O)NCCOCCOCCOCCC(=O)N(CCCCOc1cc(C(F)(F)F)cc(C(F)(F)F)c1)CC(=O)N[C@@H](Cc1ccc2ccccc2c1)C(=O)NCCCC[C@H](NC(=O)N[C@@H](CCC(=O)O)C(=O)O)C(=O)O [Compound 88] | 63.3 | 0.452 | 215000 1.ms | 0.000329 | 1.53
CC(=O)NCCOCCOCCOCCC(=O)N(CCCOc1ccc(F)cc1F)CC(=O)NC[C@H]1CC[C@H](C(=O)N[C@@H](Cc2ccc3ccccc3c2)C(=O)NCCCC[C@H](NC(=O)N[C@@H](CCC(=O)O)C(=O)O)C(=O)O)CC1 [Compound 39] | 50.5 | 0.361 | 223000 1.ms | 0.00024 | 1.08
CC(=O)NCCOCCOCCOCCC(=O)NC[C@H]1CC[C@H](C(=O)N[C@H](Cc2c[nH]c3ccccc23)C(=O)NCCCC[C@H](NC(=O)N[C@@H](CCC(=O)O)C(=O)O)C(=O)O)CC1 [Compound 5] | 81.7 | 0.584 | 195000 1.ms | 0.000543 | 2.78
CC(=O)NCCOCCOCCOCCC(=O)NC[C@H]1CC[C@H](C(=O)N[C@@H](Cc2ccc(-c3ccccc3)cc2)C(=O)NCCCC[C@H](NC(=O)N[C@@H](CCC(=O)O)C(=O)O)C(=O)O)CC1 [Compound 7] | 171 | 1.23 | 293000 1.ms | 0.00167 | 5.72
CC(=O)NCCOCCOCCOCCC(=O)NC[C@H]1CC[C@H](C(=O)N[C@@H](Cc2cccc(C(=O)O)c2)C(=O)NCCCC[C@H](NC(=O)N[C@@H](CCC(=O)O)C(=O)O)C(=O)O)CC1 [Compound 10] | 21.3 | 0.152 | – | – | 2.02
CC(=O)NCCOCCOCCOCCC(=O)N[C@@H]1C[C@@H](C(=O)N[C@@H](Cc2ccc3ccccc3c2)C(=O)NCCCC[C@H](NC(=O)N[C@@H](CCC(=O)O)C(=O)O)C(=O)O)N(C(=O)CCCOc2cc(C#N)cc(C#N)c2)C1 (stereo in doubt) [Compound 82] | 1.8 | 0.0129 | 72200 1.ms | 0.000381 | 5.27
CC(=O)NCCOCCOCCOCCC(=O)N1C[C@H](NC(=O)CCCOc2cc(C#N)cc(C#N)c2)C[C@H]1C(=O)N[C@@H](Cc1ccc2ccccc2c1)C(=O)NCCCC[C@H](NC(=O)N[C@@H](CCC(=O)O)C(=O)O)C(=O)O [Compound 80] | – | – | 243000 1.ms | 0.000599 | –
CC(=O)NCCOCCOCCOCCC(=O)N[C@@H](Cc1ccc(C(=O)O)cc1)C(=O)NCC(=O)N[C@@H](Cc1ccc2ccccc2c1)C(=O)NCCCC[C@H](NC(=O)N[C@@H](CCC(=O)O)C(=O)O)C(=O)O [Compound 94] | – | – | 112000 1.ms | 0.000261 | –
